Measured values: PMC10712727, “Safety, Tolerability, and Pharmacokinetics of Senaparib, a Novel PARP1/2 Inhibitor, in Chinese Patients With Advanced Solid Tumors: A Phase I Trial” (The Oncologist, 2023)

Tested on: patients with advanced solid tumors
Assay: Safety: treatment-emergent and senaparib-related adverse events graded per NCI CTCAE v4.03
Type: in vivo
Settings: TEAE
Method: This phase I, open-label, multicenter, dose-escalation, and dose-expansion study was conducted at three national clinical institutions in China. […] At baseline, all patients enrolled in the dose-escalation phase had to have at least one evaluable lesion, and those in the dose-expansion period had to have at least one measurable lesion, according to Response Evaluation Criteria in Solid Tumors version 1.1 (RECIST v1.1).[16] Entry to the dose-expansion cohort required the presence of a BRCA mutation, with the exception of patients with ovarian carcinoma, fallopian tube carcinoma, and primary peritoneal carcinoma. Full study eligibility criteria are provided in Supplementary Table S1.
Dose escalation was conducted using a modified Fibonacci 3 + 3 method (Supplementary Fig. S1).[17] Patients were administered oral senaparib from a planned starting dose of 2 mg once daily (QD), with preliminary dose escalation to 120 mg via nine dose groups, in order of their entry into the study. At a given dose level, each patient received a single dose of senaparib followed by a 7-day washout period. They then entered a continuous dosing period to confirm the safety and PK profile, in which they received senaparib QD from day 1 to day 21 of each 3-week cycle. Progression to the next higher dose required approval from the Data Safety Monitoring Committee (DSMC) upon review of the safety and PK data of the previous dose. A 50-mg twice-daily (BID) dosing group was added (planned enrollment, n = 6 patients) based on a DSMC review of the safety, PK, and efficacy analysis of the completed QD dose groups in the phase I clinical trial of senaparib dose escalation in Australia (NCT03507543), which commenced prior to the start of this trial.
The dose-expansion period included 3 populations: dose groups in which at least one patient achieved complete response (CR) or partial response (PR) per RECIST v1.1[16] and 1 dose group higher (evaluated for safety), as well as the dose group at the maximum tolerated dose (MTD)/recommended phase II dose (RP2D). Each of these groups included those patients in the respective dose-escalation group plus a planned additional 10 patients (approximately 20 patients in the MTD/RP2D group) with BRCA^mut+ solid tumors (ovarian, breast, or prostate cancer were preferred, and ovarian cancer could be BRCA wild type). Patients received senaparib monotherapy orally QD or BID (50-mg dose only) over each 3-week cycle until disease progression or unacceptable toxicity.
DLTs were predefined toxicities (Supplementary Table S2) recorded over the 7 days following the single-dose administration of senaparib and during the first treatment cycle (day 1-day 21) for each dose group in the dose-escalation period only. The MTD was defined as the maximum dose at which ≤1/6 patients experienced a DLT. Senaparib PK parameters were derived from blood samples collected from patients after the single administration, and at regular intervals during the first cycle of the dose-escalation and dose-expansion periods. Plasma concentrations of senaparib were determined using high-performance liquid chromatography-tandem mass spectrometry. Tumor response was assessed every 6 weeks per RECIST v1.1,[16] recording objective response rate (ORR), disease control rate (DCR), duration of response (DOR), and progression-free survival (PFS) by dose level for all patients and for those harboring BRCA^mut+ tumors.

## O=C(c1cc(Cn2c(=O)[nH]c(=O)c3c(F)cccc32)ccc1F)N1CCN(c2ncccn2)CC1 [Senaparib]
60 mg QD n = 5
  Asthenia, Gr≥3: 0 n (%)
  Blood bilirubin increased, All: 0 n (%)
  Blood bilirubin increased, Gr≥3: 0 n (%)
  Blood creatinine increased, All: 1 (20.0) n (%)
  Blood creatinine increased, Gr≥3: 0 n (%)
  Hypokalemia, All: 1 (20.0) n (%)
  Hypokalemia, Gr≥3: 0 n (%)
  Hyponatremia, All: 1 (20.0) n (%)
  Hyponatremia, Gr≥3: 0 n (%)
  Nausea, All: 1 (20.0) n (%)
  Nausea, Gr≥3: 0 n (%)
  Neutrophil count decreased, All: 1 (20.0) n (%)
  Neutrophil count decreased, Gr≥3: 0 n (%)
  Pain in extremity, All: 0 n (%)
  Pain in extremity, Gr≥3: 0 n (%)
  Platelet count decreased, All: 2 (40.0) n (%)
  Platelet count decreased, Gr≥3: 0 n (%)
  Protein in urine, All: 1 (20.0) n (%)
  Protein in urine, Gr≥3: 0 n (%)
  Vomiting, All: 1 (20.0) n (%)
  Vomiting, Gr≥3: 1 (20.0) n (%)
  WBC decreased, All: 2 (40.0) n (%)
  WBC decreased, Gr≥3: 0 n (%)
80 mg QD n = 9
  ALT increased, All: 1 (11.1) n (%)
  ALT increased, Gr≥3: 0 n (%)
  AST increased, All: 2 (22.2) n (%)
  AST increased, Gr≥3: 0 n (%)
  Abdominal distension, All: 3 (33.3) n (%)
  Abdominal distension, Gr≥3: 0 n (%)
  Anemia (incl. hemoglobin decreased), All: 7 (77.8) n (%)
  Anemia (incl. hemoglobin decreased), Gr≥3: 3 (33.3) n (%)
  Appetite decreased, All: 3 (33.3) n (%)
  Appetite decreased, Gr≥3: 0 n (%)
  Asthenia, All: 2 (22.2) n (%)
  Asthenia, Gr≥3: 0 n (%)
  Blood bilirubin increased, All: 2 (22.2) n (%)
  Blood bilirubin increased, Gr≥3: 0 n (%)
  Blood creatinine increased, All: 2 (22.2) n (%)
  Blood creatinine increased, Gr≥3: 0 n (%)
  Hypokalemia, All: 3 (33.3) n (%)
  Hypokalemia, Gr≥3: 0 n (%)
  Hyponatremia, All: 1 (11.1) n (%)
  Hyponatremia, Gr≥3: 0 n (%)
  Nausea, All: 4 (44.4) n (%)
  Nausea, Gr≥3: 0 n (%)
  Neutrophil count decreased, All: 4 (44.4) n (%)
  Neutrophil count decreased, Gr≥3: 1 (11.1) n (%)
  Pain in extremity, All: 2 (22.2) n (%)
  Pain in extremity, Gr≥3: 0 n (%)
  Platelet count decreased, All: 4 (44.4) n (%)
  Platelet count decreased, Gr≥3: 2 (22.2) n (%)
  Protein in urine, All: 0 n (%)
  Protein in urine, Gr≥3: 0 n (%)
  Vomiting, All: 3 (33.3) n (%)
  Vomiting, Gr≥3: 1 (11.1) n (%)
  WBC decreased, All: 5 (55.6) n (%)
  WBC decreased, Gr≥3: 1 (11.1) n (%)
100 mg QD n = 20
  ALT increased, All: 5 (25.0) n (%)
  ALT increased, Gr≥3: 0 n (%)
  AST increased, All: 4 (20.0) n (%)
  AST increased, Gr≥3: 1 (5.0) n (%)
  Abdominal distension, All: 0 n (%)
  Abdominal distension, Gr≥3: 0 n (%)
  Anemia (incl. hemoglobin decreased), All: 11 (55.0) n (%)
  Anemia (incl. hemoglobin decreased), Gr≥3: 4 (20.0) n (%)
  Appetite decreased, All: 5 (25.0) n (%)
  Appetite decreased, Gr≥3: 0 n (%)
  Asthenia, All: 5 (25.0) n (%)
  Asthenia, Gr≥3: 0 n (%)
  Blood bilirubin increased, All: 3 (15.0) n (%)
  Blood bilirubin increased, Gr≥3: 0 n (%)
  Blood creatinine increased, All: 2 (10.0) n (%)
  Blood creatinine increased, Gr≥3: 0 n (%)
  Hypokalemia, All: 0 n (%)
  Hypokalemia, Gr≥3: 0 n (%)
  Hyponatremia, All: 2 (10.0) n (%)
  Hyponatremia, Gr≥3: 0 n (%)
  Nausea, All: 4 (20.0) n (%)
  Nausea, Gr≥3: 0 n (%)
  Neutrophil count decreased, All: 5 (25.0) n (%)
  Neutrophil count decreased, Gr≥3: 2 (10.0) n (%)
  Pain in extremity, All: 2 (10.0) n (%)
  Pain in extremity, Gr≥3: 0 n (%)
  Platelet count decreased, All: 6 (30.0) n (%)
  Platelet count decreased, Gr≥3: 1 (5.0) n (%)
  Protein in urine, All: 2 (10.0) n (%)
  Protein in urine, Gr≥3: 0 n (%)
  Vomiting, All: 5 (25.0) n (%)
  Vomiting, Gr≥3: 0 n (%)
  WBC decreased, All: 9 (45.0) n (%)
  WBC decreased, Gr≥3: 1 (5.0) n (%)
120 mg QD n = 4
  ALT increased, All: 2 (50.0) n (%)
  ALT increased, Gr≥3: 1 (25.0) n (%)
  AST increased, All: 2 (50.0) n (%)
  AST increased, Gr≥3: 0 n (%)
  Abdominal distension, All: 0 n (%)
  Abdominal distension, Gr≥3: 0 n (%)
  Anemia (incl. hemoglobin decreased), All: 3 (75.0) n (%)
  Anemia (incl. hemoglobin decreased), Gr≥3: 1 (25.0) n (%)
  Appetite decreased, All: 1 (25.0) n (%)
  Appetite decreased, Gr≥3: 0 n (%)
  Asthenia, All: 2 (50.0) n (%)
  Asthenia, Gr≥3: 0 n (%)
  Blood bilirubin increased, All: 2 (50.0) n (%)
  Blood bilirubin increased, Gr≥3: 1 (25.0) n (%)
  Blood creatinine increased, All: 1 (25.0) n (%)
  Blood creatinine increased, Gr≥3: 0 n (%)
  Hypokalemia, All: 0 n (%)
  Hypokalemia, Gr≥3: 0 n (%)
  Hyponatremia, All: 0 n (%)
  Hyponatremia, Gr≥3: 0 n (%)
  Nausea, All: 1 (25.0) n (%)
  Nausea, Gr≥3: 0 n (%)
  Neutrophil count decreased, All: 1 (25.0) n (%)
  Neutrophil count decreased, Gr≥3: 0 n (%)
  Pain in extremity, All: 1 (25.0) n (%)
